Assay results: patent US20180271930A1, “METHOD FOR RAISING POULTRY” (priority 2015, published 2018)

What was measured:
[1] = Examination 4: body weight of chicks raised until 35 days old after feeding GSSG or GSH for 3 days; format: in vivo, broiler chicks; conditions: 0.01% by mass additive in feed for 3 days; n = 6, average ± standard deviation
Method: Newly hatched broiler chicks (Ross Breeders Ltd.) were tested. A control group (=additive-free group), a GSSG addition group (0.01% by mass), and a GSH addition group (0.01% by mass) each consisting of 5 males and 5 females were set and fed with a feed composition for 3 days. […] At this timing, 2 males and 2 females in each group were slaughtered to collect blood and skeletal muscles. The gene expression levels of the MyoD family (myogenin, myostatin, and Pax7) were observed. […] Statistics were analyzed using a mixed model in consideration of a gender difference and an interaction between males and females. An ammonium salt was used as oxidized glutathione (GSSG). The GSSG contained 95.6% by mass of oxidized glutathione, and the content of reduced glutathione mixed therein was 0.1% by mass or less. […] A feed composition, for which the amount of oxidized glutathione (GSSG) added was set to 0.01% by mass, is described in Examination 1. A feed composition, for which the amount of reduced glutathione (GSH) added was set to 0.01% by mass, was prepared by adding 0.01% by mass of GSH, instead of 0.01% by mass of GSSG, to the GSSG-containing feed composition described in detail in Examination 1.

myogenin = experiment: Examination 4: myogenin gene expression in superficial pectoral muscle at 3 days old; format: in vivo, broiler chicks; conditions: 0.01% by mass additive in feed for 3 days, FIG. 3A, n=4
Method: FIGS. 3A to 3C illustrate graphs showing the expression of genes related to skeletal muscle cell differentiation in superficial pectoral muscles upon administration of each feed composition in Examination 4 (n=4). […] A relative value of the expression level of each factor is expressed as an average±standard deviation of values obtained by dividing the expression levels of each factor by the expression level of RPS9. Newly hatched broiler chicks (Ross Breeders Ltd.) were tested. A control group (=additive-free group), a GSSG addition group (0.01% by mass), and a GSH addition group (0.01% by mass) each consisting of 5 males and 5 females were set and fed with a feed composition for 3 days. […] At this timing, 2 males and 2 females in each group were slaughtered to collect blood and skeletal muscles. The gene expression levels of the MyoD family (myogenin, myostatin, and Pax7) were observed. […] Statistics were analyzed using a mixed model in consideration of a gender difference and an interaction between males and females. A method for determining gene expressions of the above factors in skeletal muscles is described above. An ammonium salt was used as oxidized glutathione (GSSG). The GSSG contained 95.6% by mass of oxidized glutathione, and the content of reduced glutathione mixed therein was 0.1% by mass or less. […]

N[C@@H](CCC(=O)N[C@@H](CS)C(=O)NCC(=O)O)C(=O)O [GSH, N—(N-γ-L-glutamyl-L-cysteinyl)glycine, reference compound]
Weight, 14 days old [1]: 512.7 ± 79.8 g | Weight, 35 days old [1]: 2052 ± 267 g | myogenin expression level vs control group (myogenin): smaller than the decrease
